PMC6726534 (Biotechnology and bioengineering, 2019)
In brackets after ≈: the same amount, converted by molar mass. Where a SMILES comes first, the peptide text is derived from it.

How the values were obtained:
Format in all cases: cell-based
E. coli JJ2489 = conditions: JJ2489, 1 h
E. coli J2210 = conditions: J2210, 1 h
[1] = system: Salmonella enterica serovar Enteritidis MH91989; conditions: serovar Enteritidis MH91989, 1 h
[2] = system: Salmonella enterica serovar Typhimurium ATCC SL1344; conditions: ATCC SL1344, 1 h
E. coli JW0013 = conditions: JW0013, 1 h

Compound	MIC (E. coli JJ2489)	MIC (E. coli J2210)	MIC [1]	MIC [2]	MIC (E. coli JW0013)
CC[C@H](C)[C@H](NC(=O)[C@H](CCCNC(=N)N)NC(=O)[C@@H](N)CCCNC(=N)N)C(=O)N[C@@H](CCCNC(=N)N)C(=O)N1CCC[C@H]1C(=O)N[C@@H](CCCNC(=N)N)C(=O)N1CCC[C@H]1C(=O)N1CCC[C@H]1C(=O)N[C@@H](CCCNC(=N)N)C(=O)N[C@@H](CC(C)C)C(=O)N1CCC[C@H]1C(=O)N[C@@H](CCCNC(=N)N)C(=O)N1CCC[C@H]1C(=O)N[C@@H](CCCNC(=N)N)C(=O)N1CCC[C@H]1C(=O)N[C@@H](CCCNC(=N)N)C(=O)O [Bac_WT, reference compound] (H-RRIRPRPPRLPRPRPR-OH)	0.120 ± 0.028 µM (≈ 0.249 µg/mL)	0.120 ± 0.028 µM (≈ 0.249 µg/mL)	0.120 ± 0.028 µM (≈ 0.249 µg/mL)	0.060 ± 0.014 µM (≈ 0.125 µg/mL)	–
CC[C@H](C)[C@H](NC(=O)[C@H](CCCNC(=N)N)NC(=O)[C@@H](N)CCCNC(=N)N)C(=O)N[C@@H](CCCCN)C(=O)N1CCC[C@H]1C(=O)N[C@@H](CCCNC(=N)N)C(=O)N1CCC[C@H]1C(=O)N1CCC[C@H]1C(=O)N[C@@H](CCCNC(=N)N)C(=O)N[C@@H](CC(C)C)C(=O)N1CCC[C@H]1C(=O)N[C@@H](CCCNC(=N)N)C(=O)N1CCC[C@H]1C(=O)N[C@@H](CCCNC(=N)N)C(=O)N1CCC[C@H]1C(=O)N[C@@H](CCCCN)C(=O)O [Bac_R4K/R16K] (H-RRIKPRPPRLPRPRPK-OH)	0.120 ± 0.028 µM (≈ 0.242 µg/mL)	0.120 ± 0.028 µM (≈ 0.242 µg/mL)	0.157 ± 0.054 µM (≈ 0.317 µg/mL)	0.120 ± 0.028 µM (≈ 0.242 µg/mL)	0.060 ± 0.014 µM (≈ 0.121 µg/mL)
CC(C)C[C@H](NC(=O)[C@H](CCCNC(=N)N)NC(=O)[C@@H]1CCCN1C(=O)[C@H](CCCNC(=N)N)NC(=O)[C@@H]1CCCN1C(=O)[C@@H]1CCCN1C(=O)[C@H](CCCNC(=N)N)NC(=O)[C@@H]1CCCN1C(=O)[C@H](CCC(N)=O)NC(=O)[C@@H]1CCCN1C(=O)[C@H](CCCCN)NC(=O)[C@H](Cc1ccc(O)cc1)NC(=O)[C@@H](NC(=O)[C@@H]1CCCN1C(=O)[C@H](CCCCN)NC(=O)[C@H](CC(N)=O)NC(=O)[C@H](CC(N)=O)NC(=O)CN)C(C)C)C(=O)O [Api_R4K/I8K/H15R] (H-GNNKPVYKPQPRPPRPRL-OH)	0.252 ± 0.087 µM (≈ 0.533 µg/mL)	0.267 ± 0.097 µM (≈ 0.565 µg/mL)	0.133 ± 0.061 µM (≈ 0.281 µg/mL)	–	0.096 ± 0.023 µM (≈ 0.203 µg/mL)
CC(C)C[C@H](NC(=O)[C@H](CCCNC(=N)N)NC(=O)[C@@H]1CCCN1C(=O)[C@H](CCCNC(=N)N)NC(=O)[C@@H]1CCCN1C(=O)[C@@H]1CCCN1C(=O)[C@H](CCCNC(=N)N)NC(=O)[C@@H]1CCCN1C(=O)[C@H](CCC(N)=O)NC(=O)[C@@H]1CCCN1C(=O)[C@H](CCCNC(=N)N)NC(=O)[C@H](Cc1ccc(O)cc1)NC(=O)[C@@H](NC(=O)[C@@H]1CCCN1C(=O)[C@H](CCCNC(=N)N)NC(=O)[C@H](CC(N)=O)NC(=O)[C@H](CC(N)=O)NC(=O)CN)C(C)C)C(=O)O [Api_I8R/H15R] (H-GNNRPVYRPQPRPPRPRL-OH)	–	–	0.067 ± 0.033 µM (≈ 0.145 µg/mL)	–	0.048 ± 0.011 µM (≈ 0.104 µg/mL)
CC[C@H](C)[C@H](NC(=O)[C@H](Cc1ccc(O)cc1)NC(=O)[C@@H](NC(=O)[C@@H]1CCCN1C(=O)[C@H](CCCCN)NC(=O)[C@H](CC(N)=O)NC(=O)[C@H](CC(N)=O)NC(=O)CN)C(C)C)C(=O)N1CCC[C@H]1C(=O)N[C@@H](CCC(N)=O)C(=O)N1CCC[C@H]1C(=O)N[C@@H](CCCNC(=N)N)C(=O)N1CCC[C@H]1C(=O)N1CCC[C@H]1C(=O)N[C@@H](CCCNC(=N)N)C(=O)N1CCC[C@H]1C(=O)N[C@@H](CCCNC(=N)N)C(=O)N[C@@H](CC(C)C)C(=O)O [Api_R4K/H15R] (H-GNNKPVYIPQPRPPRPRL-OH)	0.067 ± 0.033 µM (≈ 0.141 µg/mL)	0.133 ± 0.061 µM (≈ 0.279 µg/mL)	0.067 ± 0.033 µM (≈ 0.141 µg/mL)	0.126 ± 0.052 µM (≈ 0.265 µg/mL)	0.048 ± 0.011 µM (≈ 0.101 µg/mL)
CC(C)C[C@H](NC(=O)[C@H](CCCNC(=N)N)NC(=O)[C@@H]1CCCN1C(=O)[C@H](CCCNC(=N)N)NC(=O)[C@@H]1CCCN1C(=O)[C@@H]1CCCN1C(=O)[C@H](CCCNC(=N)N)NC(=O)[C@@H]1CCCN1C(=O)[C@H](CCC(N)=O)NC(=O)[C@@H]1CCCN1C(=O)[C@H](CCCCN)NC(=O)[C@H](Cc1ccc(O)cc1)NC(=O)[C@@H](NC(=O)[C@@H]1CCCN1C(=O)[C@H](CCCNC(=N)N)NC(=O)[C@H](CC(N)=O)NC(=O)[C@H](CC(N)=O)NC(=O)CN)C(C)C)C(=O)O [Api_I8K/H15R] (H-GNNRPVYKPQPRPPRPRL-OH)	–	0.252 ± 0.087 µM (≈ 0.54 µg/mL)	0.096 ± 0.023 µM (≈ 0.206 µg/mL)	0.192 ± 0.044 µM (≈ 0.411 µg/mL)	0.062 ± 0.027 µM (≈ 0.133 µg/mL)
CC[C@H](C)[C@H](NC(=O)[C@H](CCCNC(=N)N)NC(=O)[C@@H](N)CCCNC(=N)N)C(=O)N[C@@H](CCCCN)C(=O)N[C@@H](CCCCN)C(=O)N[C@@H](CCCNC(=N)N)C(=O)N1CCC[C@H]1C(=O)N1CCC[C@H]1C(=O)N[C@@H](CCCNC(=N)N)C(=O)N[C@@H](CC(C)C)C(=O)N1CCC[C@H]1C(=O)N[C@@H](CCCNC(=N)N)C(=O)N1CCC[C@H]1C(=O)N[C@@H](CCCNC(=N)N)C(=O)N1CCC[C@H]1C(=O)N[C@@H](CCCNC(=N)N)C(=O)O [Bac_R4K/P5K] (H-RRIKKRPPRLPRPRPR-OH)	0.120 ± 0.028 µM (≈ 0.25 µg/mL)	0.157 ± 0.054 µM (≈ 0.326 µg/mL)	0.120 ± 0.028 µM (≈ 0.25 µg/mL)	0.120 ± 0.028 µM (≈ 0.25 µg/mL)	0.060 ± 0.014 µM (≈ 0.125 µg/mL)
CC[C@H](C)[C@H](NC(=O)[C@H](CCCNC(=N)N)NC(=O)[C@@H](N)CCCNC(=N)N)C(=O)N[C@@H](CCCNC(=N)N)C(=O)N[C@@H](CCCCN)C(=O)N[C@@H](CCCNC(=N)N)C(=O)N1CCC[C@H]1C(=O)N1CCC[C@H]1C(=O)N[C@@H](CCCNC(=N)N)C(=O)N[C@@H](CC(C)C)C(=O)N1CCC[C@H]1C(=O)N[C@@H](CCCNC(=N)N)C(=O)N1CCC[C@H]1C(=O)N[C@@H](CCCNC(=N)N)C(=O)N1CCC[C@H]1C(=O)N[C@@H](CCCCN)C(=O)O [Bac_P5K/R16K] (H-RRIRKRPPRLPRPRPK-OH)	0.120 ± 0.028 µM (≈ 0.25 µg/mL)	0.157 ± 0.054 µM (≈ 0.326 µg/mL)	0.120 ± 0.028 µM (≈ 0.25 µg/mL)	0.120 ± 0.028 µM (≈ 0.25 µg/mL)	0.060 ± 0.014 µM (≈ 0.125 µg/mL)
CC(C)C[C@H](NC(=O)[C@H](CCCNC(=N)N)NC(=O)[C@@H]1CCCN1C(=O)[C@H](CCCNC(=N)N)NC(=O)[C@@H]1CCCN1C(=O)[C@@H]1CCCN1C(=O)[C@H](CCCNC(=N)N)NC(=O)[C@@H]1CCCN1C(=O)[C@H](CCC(N)=O)NC(=O)[C@@H]1CCCN1C(=O)[C@H](CCCNC(=N)N)NC(=O)[C@H](Cc1ccc(O)cc1)NC(=O)[C@@H](NC(=O)[C@@H]1CCCN1C(=O)[C@H](CCCCN)NC(=O)[C@H](CC(N)=O)NC(=O)[C@H](CC(N)=O)NC(=O)CN)C(C)C)C(=O)O [Api_R4K/I8R/H15R] (H-GNNKPVYRPQPRPPRPRL-OH)	0.133 ± 0.061 µM (≈ 0.285 µg/mL)	0.252 ± 0.087 µM (≈ 0.54 µg/mL)	0.096 ± 0.023 µM (≈ 0.206 µg/mL)	–	–
CC[C@H](C)[C@H](NC(=O)[C@H](CCCNC(=N)N)NC(=O)[C@@H](N)CCCNC(=N)N)C(=O)N[C@@H](CCCCN)C(=O)N[C@@H](CCCCN)C(=O)N[C@@H](CCCNC(=N)N)C(=O)N1CCC[C@H]1C(=O)N1CCC[C@H]1C(=O)N[C@@H](CCCNC(=N)N)C(=O)N[C@@H](CC(C)C)C(=O)N1CCC[C@H]1C(=O)N[C@@H](CCCNC(=N)N)C(=O)N1CCC[C@H]1C(=O)N[C@@H](CCCNC(=N)N)C(=O)N1CCC[C@H]1C(=O)N[C@@H](CCCCN)C(=O)O [Bac_R4K/P5K/R16K] (H-RRIKKRPPRLPRPRPK-OH)	0.120 ± 0.028 µM (≈ 0.246 µg/mL)	0.167 ± 0.061 µM (≈ 0.343 µg/mL)	0.167 ± 0.061 µM (≈ 0.343 µg/mL)	0.120 ± 0.028 µM (≈ 0.246 µg/mL)	0.060 ± 0.014 µM (≈ 0.123 µg/mL)
